Laboratory results reported in BindingDB's records for PubMed 35239336 (Pharmaron Beijing Co., Ltd., 2022).

Assay: Inhibition of MK-499 binding to hERG

| SMILES | IC50 [µM] |
| --- | --- |
| CC(C)(O)c1cc(C(F)(F)F)ncc1-c1ccc(C2(C(=O)Nc3ccc(F)cc3)COC2)cc1 | 21.3 |
| O=C(Nc1ccc(F)cc1)C1(c2ccc(-c3cnc(C(F)(F)F)cc3CO)cc2)CC(F)(F)C1 | 6.1 |
| O=C(Nc1ccc(F)cc1)C1(c2ccc(-c3ccc(C4CC4)nc3)cc2)COC1 | 13.5 |
| Cc1cc(C2CC2)ncc1-c1ccc(C2(C(=O)Nc3ccc(F)cc3)COC2)cc1 | 15.9 |
| Cc1cc(C(F)(F)F)ncc1-c1ccc(C2(C(=O)Nc3ccc(F)cc3)COC2)cc1 | 2.23 |
